The subject of this assay is natriuretic peptide receptors (NPRA or NPRB). Put plainly: 2-point blood cGMP evaluation (2 and 6 hours) after 15 mg/Kg s.c., cGMP Direct Biotrak EIA. It counts as in vivo, CD-1 mice. Particulars: for In vivo blood cGMP minus baseline, 2 hour (potency) / In vivo blood cGMP minus baseline, 6 hour (receptor depletion): 15 mg/Kg s.c. in mice (n=3), minus baseline 30 pmol/ml (n=12); for In vivo blood cGMP minus baseline, 2 hour (potency): 2 hours after dosing; for In vivo blood cGMP minus baseline, 6 hour (receptor depletion): 6 hours after dosing; for activity / potency compared to ANP, in words (2 hour data in Table 2) / apparent receptor depletion/internalization, in words (6 hour data in Table 2): 15 mg/Kg s.c. in mice, blood cGMP. The protocol:
Various derivatives of ANP were made and screened for increase in vivo potency while limiting the apparent receptor depletion effects (or perhaps can act on another cGMP enhancing receptors) by looking at the level of blood cGMP at specific time points. […] Various derivatives were made and tested in vivo to determine the level of blood cGMP at 2 hours and 6 hours after subcutaneous administration of 15 mg/Kg in mice (which was allometrically equivalent to human dose of 1.5 mg/Kg) with the goal of finding derivatives that were therapeutically useful for increasing blood cGMP.
For 2-point cGMP evaluation of various derivatives, test samples were dissolved in water (Lonza, Wakersville, MD) before being lyophilized. Prior to use, the lyophilized test sample was dissolved in saline then 15 mg/Kg was injected subcutaneously into female CD-1 mice 6-8 weeks (n=3). Blood samples were collected at 2 and 6 hours with K2EDTA blood collection tube. The collection tube was then centrifuged at 13,000 rpm for 10 minutes at 4° C. to separate plasma. The plasma was analyzed using the cGMP Direct Biotrak EIA (GE Healthcare Life Sciences, Marlborough, MA). Note that by using allometric scaling at exponent of 0.7 [dose in other species=mice dose/((mouse weight/weight of average other species)^0.7)], the 15 mg/Kg in mice is equivalent to about 7.5 mg/Kg rat dose, about 2.5 mg/Kg dog dose, and 1.5 mg/Kg human dose. For the purpose the present disclosure, the 15 mg/Kg in mice as presented in the relevant data examples, should be understood as equivalent to about 7.5 mg/Kg rat dose, which is equivalent to about 2.5 mg/Kg dog dose, which is equivalent to about 1.5 mg/Kg human dose. Because the mice cGMP response to 15 mg/Kg dose of the newly discovered derivatives (see Table 2) was quite high, it would be prudent to use daily doses that are lower than 15 mg/Kg for mice, 7.5 mg/Kg for rat, 2.5 mg/Kg for dog, and 1.5 mg/Kg for human since any higher dose may result in too much increase in cGMP that can result in too much or even dangerous drop in blood pressure unless formulated in a very slow release delivery system. In fact based on cGMP response it was more preferable to use daily doses that are lower than […], 1.5 mg/Kg for rat, 0.5 mg/Kg for dog, and 0.3 mg/Kg for human. Additionally, the level of blood cGMP is preferably between 1.5 to 3-times of the normal baseline level. The blood or plasma cGMP normal baseline level was about 20-50 pmol/ml but could vary slightly depending on the assay kit used to measure the level.

Non-standard residues stand in square brackets, D forms with d. No end group written: not given here. *: point of attachment. Stearoyl = CCCCCCCCCCCCCCCCCC(=O)*; Lauroyl = CCCCCCCCCCCC(=O)*

In the case of “CH3(CH2)10CO-KKGGGSLRRSSCFGGRMDRIGAQSGLGCNSFRY (Lauroyl-KKGGGSLRRSSCFGGRMDRIGAQSGLGCNSFRY; not fully specified (bridges); printed as CH3(CH2)10CO-KKGGGSLRRSSCFGGRMDRIGAQSGLGCNSFRY; cysteine pairing not given here; listed as Homo Sapiens) [SEQ ID NO. 9]”, the “In vivo blood cGMP minus baseline, 2 hour (potency)” value came to 163.62 nM; the “In vivo blood cGMP minus baseline, 6 hour (receptor depletion)” value was 4.78 pmol/mL; the “activity / potency compared to ANP, in words (2 hour data in Table 2)” value (shortened to “activity / potency compared to ANP”) is “increased potency”.
Turning to “CH3(CH2)10CO-KKKGGGSLRRSSCFGGRMDRIGAQSGLGCNSFRY (Lauroyl-KKKGGGSLRRSSCFGGRMDRIGAQSGLGCNSFRY; not fully specified (bridges); printed as CH3(CH2)10CO-KKKGGGSLRRSSCFGGRMDRIGAQSGLGCNSFRY; cysteine pairing not given here; listed as Homo Sapiens) [SEQ ID NO. 11]”, the “In vivo blood cGMP minus baseline, 2 hour (potency)” value came to 136.16 nM; the “In vivo blood cGMP minus baseline, 6 hour (receptor depletion)” value was 10.28 pmol/mL; the “activity / potency compared to ANP” value was “increased potency”.
On to “CH3(CH2)10CO-KKKKGGGSLRRSSCFGGRMDRIGAQSGLGCNSFRY (Lauroyl-KKKKGGGSLRRSSCFGGRMDRIGAQSGLGCNSFRY; not fully specified (bridges); printed as CH3(CH2)10CO-KKKKGGGSLRRSSCFGGRMDRIGAQSGLGCNSFRY; cysteine pairing not given here; listed as Homo Sapiens) [SEQ ID NO. 15]”, for which the “In vivo blood cGMP minus baseline, 2 hour (potency)” value was determined as 60.52 nM; the “In vivo blood cGMP minus baseline, 6 hour (receptor depletion)” value amounted to 3.36 pmol/mL; the “activity / potency compared to ANP” value is listed as “increased potency”; the “apparent receptor depletion/internalization, in words (6 hour data in Table 2)” value is “prevented apparent receptor depletion/internalization”.
In the case of “CH3(CH2)16CO-KKGGGSLRRSSCFGGRMDRIGAQSGLGCNSFRY (Stearoyl-KKGGGSLRRSSCFGGRMDRIGAQSGLGCNSFRY; not fully specified (bridges); printed as CH3(CH2)16CO-KKGGGSLRRSSCFGGRMDRIGAQSGLGCNSFRY; cysteine pairing not given here; listed as Homo Sapiens) [SEQ ID NO. 10]”, the “In vivo blood cGMP minus baseline, 2 hour (potency)” value was 183.12 nM; the “In vivo blood cGMP minus baseline, 6 hour (receptor depletion)” value worked out at 14.78 pmol/mL; the “activity / potency compared to ANP” value was “increased potency”.
In the case of “CH3(CH2)16CO-KKKGGGSLRRSSCFGGRMDRIGAQSGLGCNSFRY (Stearoyl-KKKGGGSLRRSSCFGGRMDRIGAQSGLGCNSFRY; not fully specified (bridges); printed as CH3(CH2)16CO-KKKGGGSLRRSSCFGGRMDRIGAQSGLGCNSFRY; cysteine pairing not given here; listed as Homo Sapiens) [SEQ ID NO. 14]”, the “In vivo blood cGMP minus baseline, 2 hour (potency)” value was found to be 574.25 nM; the “In vivo blood cGMP minus baseline, 6 hour (receptor depletion)” value was 255.75 pmol/mL; the “activity / potency compared to ANP” value was “increased potency”.
Turning to “CH3(CH2)16CO-KKKKGGGSLRRSSCFGGRMDRIGAQSGLGCNSFRY (Stearoyl-KKKKGGGSLRRSSCFGGRMDRIGAQSGLGCNSFRY; not fully specified (bridges); printed as CH3(CH2)16CO-KKKKGGGSLRRSSCFGGRMDRIGAQSGLGCNSFRY; cysteine pairing not given here; listed as Homo Sapiens) [SEQ ID NO. 18]”, the “In vivo blood cGMP minus baseline, 2 hour (potency)” value came out at 355.17 nM; the “In vivo blood cGMP minus baseline, 6 hour (receptor depletion)” value came out at 231.65 pmol/mL; the “activity / potency compared to ANP” value is listed as “increased potency”; the “apparent receptor depletion/internalization, in words (6 hour data in Table 2)” value is recorded as “prevented apparent receptor depletion/internalization”.
For the substance “CH3(CH2)16CO-KKKKSLRRSSCFGGRMDRIGAQSGLGCNSFRY (Stearoyl-KKKKSLRRSSCFGGRMDRIGAQSGLGCNSFRY; not fully specified (bridges); cysteine pairing not given here; listed as Homo Sapiens) [SEQ ID NO. 35]”, the “In vivo blood cGMP minus baseline, 2 hour (potency)” value was determined as 45.00 nM; the “In vivo blood cGMP minus baseline, 6 hour (receptor depletion)” value is 12.79 pmol/mL; the “activity / potency compared to ANP” value is on record as “slightly increased in activity”; the “apparent receptor depletion/internalization, in words (6 hour data in Table 2)” value is listed as “no significant effect on apparent receptor internalization”.
Take “CH3(CH2)16CO-KKKKSLRRSSCFGGRMDRIGAQSGLGCNSFrY (Stearoyl-KKKKSLRRSSCFGGRMDRIGAQSGLGCNSF[dR]Y; not fully specified (bridges); printed as KKKKSLRRSSCFGGRMDRIGAQSGLGCNSFrY; cysteine pairing not given here; listed as Homo Sapiens) [SEQ ID NO. 36]”: the “In vivo blood cGMP minus baseline, 2 hour (potency)” value was “inactive” and the “In vivo blood cGMP minus baseline, 6 hour (receptor depletion)” value was “inactive”.
For the substance “CH3(CH2)16CO-RRR-SGRGGGCFGGRMDRIGAQSGLGCNSFRY (Stearoyl-RRRSGRGGGCFGGRMDRIGAQSGLGCNSFRY; not fully specified (bridges); printed as CH3(CH2)16CO-RRR-SGRGGGCFGGRMDRIGAQSGLG; cysteine pairing not given here; listed as Homo Sapiens) [SEQ ID NO. 37]”, the “In vivo blood cGMP minus baseline, 2 hour (potency)” value was 45.61 nM; the “In vivo blood cGMP minus baseline, 6 hour (receptor depletion)” value was determined as 10.16 pmol/mL; the “activity / potency compared to ANP” value is recorded as “limited increase in activity”.
For “CH3(CH2)16CO-RRR-SGRGSGCFGGRMDRIGAQSGLGCNSFRY (Stearoyl-RRRSGRGSGCFGGRMDRIGAQSGLGCNSFRY; not fully specified (bridges); printed as CH3(CH2)16CO-RRR-SGRGSGCFGGRMDRIGAQSGLG; cysteine pairing not given here; listed as Homo Sapiens) [SEQ ID NO. 38]”, the “In vivo blood cGMP minus baseline, 2 hour (potency)” value came to 33.56 nM; the “In vivo blood cGMP minus baseline, 6 hour (receptor depletion)” value amounted to 7.97 pmol/mL; the “activity / potency compared to ANP” value is recorded as “limited increase in activity”.
“CH3(CH2)16CO-RRR-SLPRSSCFGGRMDRIGAQSGLGCNSFRY-NH2 (Stearoyl-RRRSLPRSSCFGGRMDRIGAQSGLGCNSFRY-NH2; not fully specified (bridges); printed as CH3(CH2)16CO-RRR-SLPRSSCFGGRMDRIGAQSGLG; cysteine pairing not given here; listed as Homo Sapiens) [SEQ ID NO. 39]”: the “In vivo blood cGMP minus baseline, 2 hour (potency)” value was “inactive”; the “In vivo blood cGMP minus baseline, 6 hour (receptor depletion)” value is “inactive”; the “activity / potency compared to ANP” value was “loss or diminished of activity”.
Consider “CH3(CH2)16CO-RRR-SLPRSSCFGGRMDRIGAQSGLGCNSFrY-NH2 (Stearoyl-RRRSLPRSSCFGGRMDRIGAQSGLGCNSF[dR]Y-NH2; not fully specified (bridges); printed as CH3(CH2)16CO-RRR-SLPRSSCFGGRMDRIGAQSGLG; cysteine pairing not given here; listed as Homo Sapiens) [SEQ ID NO. 40]”, for which the “In vivo blood cGMP minus baseline, 2 hour (potency)” value is “inactive”; the “In vivo blood cGMP minus baseline, 6 hour (receptor depletion)” value was “inactive”; the “activity / potency compared to ANP” value is “loss or diminished of activity”.
With “CH3(CH2)16COKKGGGGLSKGCFGLKLDRIGSMSGLGC (Stearoyl-KKGGGGLSKGCFGLKLDRIGSMSGLGC; not fully specified (bridges); printed as CH3(CH2)16COKKGGGGLSKGCFGLKLDRIGSMSGLGC; cysteine pairing not given here; listed as Homo Sapiens) [SEQ ID NO. 86]”, the “In vivo blood cGMP minus baseline, 2 hour (potency)” value stood at 80.2 nM and the “In vivo blood cGMP minus baseline, 6 hour (receptor depletion)” value came to 42.37 pmol/mL.
Regarding “CH3(CH2)16COKKKGGGGLSKGCFGLKLDRIGSMSGLGC (Stearoyl-KKKGGGGLSKGCFGLKLDRIGSMSGLGC; not fully specified (bridges); printed as CH3(CH2)16COKKKGGGGLSKGCFGLKLDRIGSMSGLGC; cysteine pairing not given here; listed as Homo Sapiens) [SEQ ID NO. 68]”, the “In vivo blood cGMP minus baseline, 2 hour (potency)” value was 330.29 nM and the “In vivo blood cGMP minus baseline, 6 hour (receptor depletion)” value was 250.33 pmol/mL.
